{"source": "patent US10464925B2", "about": "“Methods to induce targeted protein degradation through bifunctional molecules” (Dana-Farber Cancer Institute, Inc., priority 2015, dated 2019)", "key": {"T47D": {"system": "T47D", "test": "cells", "details": "Homo sapiens, 72 h"}, "CUTL1": {"system": "CUTL1", "test": "Cell viability, ATPlite 48 hours, CUTLL1", "format": "cell-based", "details": "CUTL1 cells", "method": "(§1) ATP content was measured as a surrogate for cellular viability using ATPlite (Promega)."}, "DND41": {"system": "DND41", "test": "Cell viability, ATPlite 48 hours, DND41", "format": "cell-based", "details": "DND41 cells", "method": "as §1"}, "SUM149R": {"system": "SUM149R", "test": "cells", "details": "72 h"}}}
{"compound": "Cc1sc2c(c1C)C(c1ccc(Cl)cc1)=N[C@@H](CC(=O)NCCCCCCCCNC(=O)COc1cccc3c1C(=O)N(C1CCC(=O)NC1=O)C3=O)c1nnc(C)n1-2", "note": "(stereo partly drawn) [dBET6]", "values": [{"measurement": "Emax", "setting": "T47D; read-out: Emax (%) T47D", "value": 49.4, "unit": "%"}, {"measurement": "IC50", "setting": "T47D; read-out: IC50 (nM) T47D", "value": 7.46, "unit": "nM"}, {"measurement": "IC50", "setting": "CUTL1", "value": 70.8, "unit": "nM"}, {"measurement": "IC50", "setting": "DND41", "value": 34.4, "unit": "nM"}, {"measurement": "Emax", "setting": "SUM149R; read-out: Emax (%) SUM149R", "value": 10.6, "unit": "%"}, {"measurement": "IC50", "setting": "SUM149R; read-out: IC50 (nM) SUM149R", "value": 18.5, "unit": "nM"}]}
